Assay results from publication PMC6273599, “Sesquiterpenoids and Diterpenoids from the Wood of Cunninghamia konishii and Their Inhibitory Activities against NO Production” (Molecules, 2016).
≈ marks a conversion by molar mass, not a printed value.

What was measured:
Assay type in all cases: cell-based, murine
[1] = tested on: LPS-stimulated RAW 264.7 cells; assay: Inhibition of LPS-induced nitric oxide production (Griess nitrite measurement); details: LPS (100 ng/mL)-stimulated RAW 264.7 cells, 24 h, Griess reaction, mean ± SD of three replicates; for IC50: Mus musculus, RAW264.7, read-out: Inhibition of NO Production IC50
Text: (§1) Nitric oxide (NO) is derived from the oxidation of L-arginine by NO synthase (NOS) and is recognized as a mediator and regulator in biological actions, especially in inflammatory responses. In inflammation and carcinogenesis conditions, there is an increased production of NO by inducible NO synthase (iNOS). Thus, inhibitors of NO might be of therapeutic importance in preventing pathological conditions catalyzed by inflammation. Macrophages contain various chemical mediators that may be responsible for several inflammatory stages and have been expected to be an origin of inflammation. iNOS mainly exists in macrophages and can be induced by pro-inflammatory agents lipopolysaccharides (LPS). […] In this study, the inhibitory activity toward NO production of four sesquiterpenoids (1, 4, 5, and 6) and eight diterpenoids (8–15) was evaluated by measurement of nitrite/nitrate in LPS-stimulated RAW 264.7 cells. To search for the appropriate concentrations for the above assay, these 12 compounds were first tested their cytotoxic activity against the RAW 264.7 cells, and no significant cytotoxic activities were observed under all tested concentrations (Table 3).
(§2) A murine macrophage cell line RAW264.7 (BCRC No. 60001) was obtained from the Bioresources Collection and Research Center (BCRC) of the Food Industry Research and Development Institute (Hsinchu, Taiwan). Cells were maintained in Dulbecco’s Modified Eagle Medium (DMEM, Sigma, St. Louis, MO, USA) supplemented with 10% fetal bovine serum (FBS, Sigma). Cells were cultured in a humidified atmosphere with 5% CO2 at 37 °C and subcultured every three days at a dilution of 1:5 using 0.05% trypsin-0.02% EDTA in Ca^2+-, Mg^2+-free phosphate-buffered saline (DPBS).
The anti-inflammatory activity of compounds was evaluated by using a nitric oxide (NO) inhibitory activity assay. As a stable NO metabolite, production of NO was indirectly determined by Griess reaction to measure the concentration of nitrite in the culture medium. The cells were incubated with test compounds (0, 2.5, 5, 10, 20 and 40 μg/mL) in the presence of LPS (100 ng/mL) at 37 °C for 24 h. Then, cells were dispensed into 96-well plates, and 100 μL of each supernatant was reacted with an equal volume of Griess reagent (1% sulfanilamide, 0.1% naphthyl ethylenediamine dihydrochloride and 5% phosphoric acid) and incubated at room temperature for 10 min. Absorbance was then measured at 540 nm using a Micro-Reader (Molecular Devices Orleans Drive, Sunnyvale, CA, USA). A standard curve was generated, using freshly prepared 0–100 μM […] dissolved in assay buffer, to quantitate unknown nitrite in samples.
(§3) The data is expressed as means ± standard errors (SE). The IC50 values were calculated from the dose curves using a non-linear regression algorithm (SigmaPlot 8.0; SPSS Inc., Chicago, IL, USA, 2002). Statistical evaluation was carried out by one-way analysis of variance (ANOVA followed by Scheffe’s multiple range tests).

[2] = Cell viability / cytotoxicity (MTT); details: mouse, RAW 264.7 macrophage cells, RAW 264.7 cells, 24 h with test compound in presence of 100 ng/mL LPS, mean ± SD of three replicates
Text: as §1, §2
(§4) Cells (2 × 10^5) were cultured in 96-well plate containing DMEM supplemented with 10% FBS. After 24 h of cells incubation, cells were cultured with test compounds in the presence of 100 ng/mL LPS (lipopolysaccharide) for 24 h. Untreated cells served as the control. After that, the cells were washed twice with DPBS and 100 μL of 0.5 mg/mL MTT was added to each well for further 2 h incubation at 37 °C. The medium was then discarded, and the colored crystals of produced formazan were dissolved in 100 μL dimethyl sulfoxide (DMSO). After 30 min incubation, the absorbance was measured at 570 nm on a microplate reader (Molecular Devices).
as §3

RAW 264.7 cells = assay: Cell viability / cytotoxicity (MTT); details: 24 h with test compound in presence of 100 ng/mL LPS, mean ± SD of three replicates
Text: as §1, §2, §4, §3

| Compound | IC50 [1] | IC50 at 24 h [2] | Inhibition of NO Production IC50 [1] | Cytotoxicity IC50 (RAW 264.7 cells) |
| --- | --- | --- | --- | --- |
| CC1CCC2(C)CC3CCC12C(O)C3(C)C (stereo not drawn) [Compound 1, 2α-hydroxy-3,3,6α,9β-tetramethyltricyclo[4,3,2^1,4]undecane] | > 20 µg/mL | > 20 µg/mL |  |  |
| CC(=O)OC(C)(C)C1CCC2(C)CCCC(C)(O)C2C1 (stereo not drawn) [Compound 5, 11-acetoxyeudesman-4α-ol] |  |  | >20 µg/mL | >20 µg/mL |
| CC(=O)OC(C)(C)C1CCC2(C)CCCC(C)(O)C2C1 (stereo not drawn) [Compound 4, 11-acetoxyeudesman-4β-ol] | > 20 µg/mL | > 20 µg/mL |  |  |
| COc1ccc2c(c1)c(CC(=O)O)c(C)n2C(=O)c1ccc(Cl)cc1 [indomethacin, reference compound] | 65.4 ± 1.8 µg/mL (≈ 183 µM) | > 100 µg/mL |  |  |
| C=CC(C)(O)CCC1C(C)(O)CCC2C(C)(C)CCCC21C (centres unmarked) [Compound 15] | 13.1 ± 0.55 µg/mL (≈ 42.4 µM) | > 20 µg/mL |  |  |
| Cc1ccc(C(C)C)c2c1[C@H](O)[C@@H](O)[C@@H](C)C2 [Compound 6, 2α,3β-dihydroxy-4β-methyl-6,8,10-cadinatriene] | > 20 µg/mL | > 20 µg/mL |  |  |

Further lines, with some results ahead:

| IC50 [1] | Compound | IC50 at 24 h [2] | Inhibition of NO Production IC50 [1] | Cytotoxicity IC50 (RAW 264.7 cells) |
| --- | --- | --- | --- | --- |
| > 20 µg/mL | C=CC(=C)CCC1C(C)(O)CCC2C(C)(C=O)CCCC12C (centres unmarked) [Compound 11] | > 20 µg/mL |  |  |
| > 20 µg/mL | C=C1CCC2C(C)(C(=O)O)CCCC2(C)C1CC1OCC=C1C (centres unmarked) [Compound 14] | > 20 µg/mL |  |  |
| > 20 µg/mL | C=CC(C)=CCC1C(=C)CCC2C(C)(CO)CCCC12C (centres unmarked) [Compound 9, elliotinol] | > 20 µg/mL |  |  |
| > 20 µg/mL | C=C1CCC2C(C)(CO)CCCC2(C)C1C=CC(C)=O (centres unmarked) [Compound 12] | > 20 µg/mL |  |  |
| > 20 µg/mL | C=C[C@]1(C)C=C2CC[C@@H]3[C@](C)(CCC[C@@]3(C)C(=O)O)[C@H]2CC1 [Compound 8, sandaracopimaric acid] | > 20 µg/mL |  |  |
| 11.4 ± 0.62 µg/mL (≈ 41.1 µM) | CC(=O)C=CC1C(C)(O)CCC2C(C)(C)CCCC21C (stereo not drawn) [Compound 10, 8α-hydroxy-15,16-bisnorlabda-11-en-13-one] | > 20 µg/mL |  |  |
| > 20 µg/mL | C=CC1(C)OC2(C)CCC3C(C)(CO)CCCC3(C)C2CC1O (centres unmarked) [Compound 13] | > 20 µg/mL |  |  |
